Columns and labels:
Type in all cases: cell-based
ER = target: T1, ER (Homo sapiens, UniProt P03372); assay: co-transfection assay, ER
T1 construct: expressed in transfected cells; host or cells: background cell substantially devoid of endogenous IRs (CV-1 described for the co-transfection assay)
T1 sequence (P03372 1-595): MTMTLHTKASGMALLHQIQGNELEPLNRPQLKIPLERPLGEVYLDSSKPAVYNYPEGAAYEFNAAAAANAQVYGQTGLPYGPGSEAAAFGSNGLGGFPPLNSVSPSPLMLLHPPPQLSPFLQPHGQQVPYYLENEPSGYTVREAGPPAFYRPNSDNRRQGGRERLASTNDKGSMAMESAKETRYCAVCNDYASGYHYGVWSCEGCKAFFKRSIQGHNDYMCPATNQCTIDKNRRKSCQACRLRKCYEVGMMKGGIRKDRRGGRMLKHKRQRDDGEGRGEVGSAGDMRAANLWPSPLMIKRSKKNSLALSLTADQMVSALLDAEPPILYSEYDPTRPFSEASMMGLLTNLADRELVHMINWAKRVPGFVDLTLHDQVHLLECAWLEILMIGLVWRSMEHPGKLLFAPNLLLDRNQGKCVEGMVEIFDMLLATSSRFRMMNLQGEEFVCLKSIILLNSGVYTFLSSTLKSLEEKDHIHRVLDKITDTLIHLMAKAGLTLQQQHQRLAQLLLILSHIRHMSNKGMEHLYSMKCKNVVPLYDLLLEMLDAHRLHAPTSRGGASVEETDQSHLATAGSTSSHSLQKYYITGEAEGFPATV
Protocol: (§1) CV-1 cells (African green monkey kidney fibroblasts) were cultured in the presence of Dulbecco's Modified Eagle Medium (DMEM) supplemented with 10% charcoal resin-stripped fetal bovine serum (CH-FBS) then transferred to 96-well microtiter plates one day prior to transfection.
(§2) Three to four replicates were used for each sample.
(§3) After 40 hours, the cells were washed with PBS, lysed with a Triton X-100-based buffer and assayed for LUC and β-Gal activities using a luminometer or spectrophotometer, respectively. For each replicate, the normalized response (NR) was calculated as: LUC response/β-Gal rate • where β-Gal rate=β-Gal/β-Gal incubation time.

MR = target: T2, MR (Homo sapiens, UniProt P08235); assay: co-transfection assay, MR
T2 construct: expressed in transfected cells; host or cells: background cell substantially devoid of endogenous IRs (CV-1 described for the co-transfection assay)
T2 sequence (P08235 1-984): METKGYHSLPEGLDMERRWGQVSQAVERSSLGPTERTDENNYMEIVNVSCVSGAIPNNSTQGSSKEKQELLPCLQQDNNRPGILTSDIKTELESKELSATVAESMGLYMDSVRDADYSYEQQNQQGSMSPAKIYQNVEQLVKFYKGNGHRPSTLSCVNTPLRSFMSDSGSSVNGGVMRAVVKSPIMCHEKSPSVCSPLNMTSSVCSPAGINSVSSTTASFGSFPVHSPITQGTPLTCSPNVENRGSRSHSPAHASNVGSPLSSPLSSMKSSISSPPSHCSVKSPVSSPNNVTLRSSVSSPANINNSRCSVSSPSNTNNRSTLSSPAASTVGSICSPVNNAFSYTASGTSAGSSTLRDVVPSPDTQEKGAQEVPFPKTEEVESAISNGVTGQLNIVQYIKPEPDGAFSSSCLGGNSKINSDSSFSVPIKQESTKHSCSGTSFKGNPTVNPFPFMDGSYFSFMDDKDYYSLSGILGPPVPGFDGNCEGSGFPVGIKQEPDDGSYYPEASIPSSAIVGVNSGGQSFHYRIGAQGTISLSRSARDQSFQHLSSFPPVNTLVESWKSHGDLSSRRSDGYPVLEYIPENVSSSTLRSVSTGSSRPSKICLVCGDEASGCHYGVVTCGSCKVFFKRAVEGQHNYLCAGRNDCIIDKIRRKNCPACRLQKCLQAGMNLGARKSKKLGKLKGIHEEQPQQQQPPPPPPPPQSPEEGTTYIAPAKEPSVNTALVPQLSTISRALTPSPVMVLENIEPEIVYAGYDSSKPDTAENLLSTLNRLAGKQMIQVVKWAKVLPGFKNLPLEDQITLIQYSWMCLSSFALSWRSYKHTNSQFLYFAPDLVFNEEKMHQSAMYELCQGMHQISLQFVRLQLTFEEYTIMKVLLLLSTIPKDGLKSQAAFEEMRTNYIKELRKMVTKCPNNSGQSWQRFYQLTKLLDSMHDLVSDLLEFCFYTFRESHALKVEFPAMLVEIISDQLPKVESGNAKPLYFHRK
Protocol: as §1, §2, §3

GR = target: T3, GR (Homo sapiens, UniProt P04150); assay: co-transfection assay, GR
T3 construct: expressed in transfected cells; host or cells: background cell substantially devoid of endogenous IRs (CV-1 described for the co-transfection assay)
T3 sequence (P04150 1-777): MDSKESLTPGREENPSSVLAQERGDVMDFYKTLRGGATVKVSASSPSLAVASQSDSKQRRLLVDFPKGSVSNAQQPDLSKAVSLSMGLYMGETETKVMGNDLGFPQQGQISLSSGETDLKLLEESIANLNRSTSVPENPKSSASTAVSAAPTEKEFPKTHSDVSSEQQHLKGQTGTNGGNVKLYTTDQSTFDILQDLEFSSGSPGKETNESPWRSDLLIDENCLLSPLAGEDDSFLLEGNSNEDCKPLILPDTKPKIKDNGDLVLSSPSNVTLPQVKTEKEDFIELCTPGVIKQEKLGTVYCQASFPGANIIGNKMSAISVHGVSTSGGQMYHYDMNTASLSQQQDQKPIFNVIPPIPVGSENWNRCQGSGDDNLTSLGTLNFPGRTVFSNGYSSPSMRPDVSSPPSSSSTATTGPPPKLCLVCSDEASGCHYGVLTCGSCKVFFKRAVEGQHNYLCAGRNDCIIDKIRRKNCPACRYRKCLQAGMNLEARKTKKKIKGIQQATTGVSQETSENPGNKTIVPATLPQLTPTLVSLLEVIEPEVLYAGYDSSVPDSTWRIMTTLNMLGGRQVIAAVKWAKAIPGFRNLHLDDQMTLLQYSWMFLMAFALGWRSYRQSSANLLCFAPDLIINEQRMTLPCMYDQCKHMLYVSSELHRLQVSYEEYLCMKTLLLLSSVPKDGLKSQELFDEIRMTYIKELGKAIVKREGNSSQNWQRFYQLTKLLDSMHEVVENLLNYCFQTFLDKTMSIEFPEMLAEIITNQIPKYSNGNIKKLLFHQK
Protocol: as §1, §2, §3

PR = target: T4, PR (Homo sapiens, UniProt P06401); assay: co-transfection assay, PR
T4 construct: expressed in transfected cells; host or cells: background cell substantially devoid of endogenous IRs (CV-1 described for the co-transfection assay)
T4 sequence (P06401 1-933): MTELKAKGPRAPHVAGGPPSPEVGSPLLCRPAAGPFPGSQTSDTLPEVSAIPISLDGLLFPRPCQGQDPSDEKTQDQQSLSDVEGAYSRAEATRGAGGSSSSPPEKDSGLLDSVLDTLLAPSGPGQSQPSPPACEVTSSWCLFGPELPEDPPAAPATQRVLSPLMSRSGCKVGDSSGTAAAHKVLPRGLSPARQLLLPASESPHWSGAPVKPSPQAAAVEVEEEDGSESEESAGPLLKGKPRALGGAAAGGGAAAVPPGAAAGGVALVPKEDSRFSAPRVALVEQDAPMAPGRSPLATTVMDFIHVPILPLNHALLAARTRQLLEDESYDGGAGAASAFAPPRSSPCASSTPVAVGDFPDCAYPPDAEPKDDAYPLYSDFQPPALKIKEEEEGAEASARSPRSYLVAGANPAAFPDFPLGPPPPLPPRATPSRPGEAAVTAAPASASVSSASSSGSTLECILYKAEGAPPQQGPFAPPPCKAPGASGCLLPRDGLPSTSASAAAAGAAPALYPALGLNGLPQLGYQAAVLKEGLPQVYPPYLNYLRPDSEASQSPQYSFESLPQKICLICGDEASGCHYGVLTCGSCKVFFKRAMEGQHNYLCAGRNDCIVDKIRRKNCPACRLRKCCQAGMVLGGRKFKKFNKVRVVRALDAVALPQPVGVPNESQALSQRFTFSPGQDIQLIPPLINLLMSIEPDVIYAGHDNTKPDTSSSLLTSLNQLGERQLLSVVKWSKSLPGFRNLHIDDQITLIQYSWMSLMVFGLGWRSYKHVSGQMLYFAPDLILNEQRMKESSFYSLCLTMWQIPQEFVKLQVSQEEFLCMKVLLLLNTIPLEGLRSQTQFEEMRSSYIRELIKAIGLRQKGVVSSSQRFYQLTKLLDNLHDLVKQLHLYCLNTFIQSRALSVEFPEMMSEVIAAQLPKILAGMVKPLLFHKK
Protocol: as §1, §2, §3

C[C@@H]1COc2c(ccc3[nH]c(=O)cc(C(F)(F)F)c23)N1 [Compound 101, (3R)-2,3,4,7-Tetrahydro-3-methyl-10-(trifluoromethyl)-8H-[1,4]oxazino[2,3-f]quinolin-8-one]
> 10 µM: EC50 (ER) | IC50 (ER) | IC50 (MR) | IC50 (GR) | EC50 (PR)

CCN1c2ccc3[nH]c(=O)cc(C(F)(F)F)c3c2OC[C@H]1C [Compound 103, (3R)-4-Ethyl-2,3,4,7-tetrahydro-3-methyl-10-(trifluoromethyl)-8H-[1,4]oxazino[2,3-f]quinolin-8-one]
> 10 µM: EC50 (ER) | IC50 (ER) | IC50 (MR) | IC50 (GR) | EC50 (PR)

— patent publication US7214690B2, “Tricyclic quinolinone and tricyclic quinoline androgen receptor modulator compounds and methods” (Ligand Pharmaceuticals Incorporated, priority 2001, dated 2007)
